In PubChem BioAssay (NCI):
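The compound was tested at five concentrations on cells cultured in 96-well plates, with a 48-hour exposure period. TGI denotes the concentration required for complete inhibition of growth.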

Key:
Assay in all cases: inhibition of tumour cell growth, NCI panel, 48 h
CCRF-CEM leukemia = test system: CCRF-CEM leukemia
OVCAR-5 ovarian = test system: OVCAR-5 ovarian
TK-10 renal = test system: TK-10 renal
ACHN renal = test system: ACHN renal
CAKI-1 renal = test system: CAKI-1 renal
KM12 colon = test system: KM12 colon
OVCAR-4 ovarian = test system: OVCAR-4 ovarian
SF-268 CNS = test system: SF-268 CNS
OVCAR-8 ovarian = test system: OVCAR-8 ovarian
SW-620 colon = test system: SW-620 colon
NCI-H460 lung = test system: NCI-H460 lung
U251 CNS = test system: U251 CNS
SF-295 CNS = test system: SF-295 CNS
MDA-MB-435 = test system: MDA-MB-435
SK-MEL-2 melanoma = test system: SK-MEL-2 melanoma
SK-MEL-28 melanoma = test system: SK-MEL-28 melanoma
HOP-92 NSCLC = test system: HOP-92 NSCLC
HOP-62 NSCLC = test system: HOP-62 NSCLC
MDA-MB-231 breast = test system: MDA-MB-231 breast
A549 NSCLC = test system: A549 NSCLC
K-562 leukemia = test system: K-562 leukemia
PC-3 prostate = test system: PC-3 prostate
DU-145 prostate = test system: DU-145 prostate
RPMI-8226 leukemia = test system: RPMI-8226 leukemia
HCT-15 colon = test system: HCT-15 colon
HS 578T breast = test system: HS 578T breast
UACC-257 melanoma = test system: UACC-257 melanoma
SK-OV-3 ovarian = test system: SK-OV-3 ovarian
RXF 393 renal = test system: RXF 393 renal
SNB-75 CNS = test system: SNB-75 CNS
SNB-19 CNS = test system: SNB-19 CNS
LOX IMVI melanoma = test system: LOX IMVI melanoma
MDA-N = test system: MDA-N
MALME-3M melanoma = test system: MALME-3M melanoma
HCT-116 colon = test system: HCT-116 colon
MOLT-4 leukemia = test system: MOLT-4 leukemia
T-47D breast = test system: T-47D breast
NCI-H522 lung = test system: NCI-H522 lung
NCI-H226 lung = test system: NCI-H226 lung
BT-549 breast = test system: BT-549 breast
IGROV1 ovarian = test system: IGROV1 ovarian
HT29 colon = test system: HT29 colon
SN12C renal = test system: SN12C renal
786-0 renal = test system: 786-0 renal
COLO 205 colon = test system: COLO 205 colon
MCF7 breast = test system: MCF7 breast
UACC-62 melanoma = test system: UACC-62 melanoma
HL-60(TB) leukemia = test system: HL-60(TB) leukemia
EKVX NSCLC = test system: EKVX NSCLC
NCI-H23 lung = test system: NCI-H23 lung
OVCAR-3 ovarian = test system: OVCAR-3 ovarian
NCI/ADR-RES ovarian = test system: NCI/ADR-RES ovarian
A498 renal = test system: A498 renal
UO-31 renal = test system: UO-31 renal
M14 melanoma = test system: M14 melanoma
HCC-2998 colon = test system: HCC-2998 colon
SF-539 CNS = test system: SF-539 CNS
SK-MEL-5 melanoma = test system: SK-MEL-5 melanoma

CN(CCCN(C)CCc1ccc(Cl)c(Cl)c1)CCCN1CCCC1
TGI (CCRF-CEM leukemia): 2.12 µM | TGI (OVCAR-5 ovarian): 15.1 µM | TGI (TK-10 renal): 5.52 µM | TGI (ACHN renal): 19.2 µM | TGI (CAKI-1 renal): 6.33 µM | TGI (KM12 colon): 7.99 µM | TGI (OVCAR-4 ovarian): 20.5 µM | TGI (SF-268 CNS): 7.02 µM | TGI (OVCAR-8 ovarian): 10.9 µM | TGI (SW-620 colon): 7.96 µM | TGI (NCI-H460 lung): 5.98 µM | TGI (U251 CNS): 4.62 µM | TGI (SF-295 CNS): 4.76 µM | TGI (MDA-MB-435): 1.42 µM | TGI (SK-MEL-2 melanoma): 3.48 µM | TGI (SK-MEL-28 melanoma): 3.18 µM | TGI (HOP-92 NSCLC): 11.5 µM | TGI (HOP-62 NSCLC): 10.5 µM | TGI (MDA-MB-231 breast): 3.61 µM | TGI (A549 NSCLC): 11.2 µM | TGI (K-562 leukemia): 1.3 µM | TGI (PC-3 prostate): 15.1 µM | TGI (DU-145 prostate): 21.4 µM | TGI (RPMI-8226 leukemia): 2.19 µM | TGI (HCT-15 colon): 7.22 µM | TGI (HS 578T breast): 4.31 µM | TGI (UACC-257 melanoma): 3.46 µM | TGI (SK-OV-3 ovarian): 23.1 µM | TGI (RXF 393 renal): 4.58 µM | TGI (SNB-75 CNS): 8.91 µM | TGI (SNB-19 CNS): 13.7 µM | TGI (LOX IMVI melanoma): 3.54 µM | TGI (MDA-N): 2.65 µM | TGI (MALME-3M melanoma): 3.83 µM | TGI (HCT-116 colon): 4.11 µM | TGI (MOLT-4 leukemia): 12.4 µM | TGI (T-47D breast): 5.94 µM | TGI (NCI-H522 lung): 3.51 µM | TGI (NCI-H226 lung): 5.68 µM | TGI (BT-549 breast): 19 µM | TGI (IGROV1 ovarian): 8.65 µM | TGI (HT29 colon): 2.58 µM | TGI (SN12C renal): 11.8 µM | TGI (786-0 renal): 2.76 µM | TGI (COLO 205 colon): 6.84 µM | TGI (MCF7 breast): 3.69 µM | TGI (UACC-62 melanoma): 3.49 µM | TGI (HL-60(TB) leukemia): 4.12 µM | TGI (EKVX NSCLC): 13.7 µM | TGI (NCI-H23 lung): 14.3 µM | TGI (OVCAR-3 ovarian): 14.8 µM | TGI (NCI/ADR-RES ovarian): 19.8 µM | TGI (A498 renal): 3.37 µM | TGI (UO-31 renal): 2.76 µM | TGI (M14 melanoma): 3.66 µM | TGI (HCC-2998 colon): 0.82 µM

COc1ccc(C(=O)N(C(=S)OCCOc2ccccc2)c2ccccc2)cc1
TGI (CCRF-CEM leukemia): 66.3 µM | TGI (OVCAR-5 ovarian): > 100 µM | TGI (TK-10 renal): > 100 µM | TGI (ACHN renal): > 100 µM | TGI (CAKI-1 renal): > 100 µM | TGI (KM12 colon): > 100 µM | TGI (OVCAR-4 ovarian): > 100 µM | TGI (SF-268 CNS): > 100 µM | TGI (OVCAR-8 ovarian): > 100 µM | TGI (SW-620 colon): > 100 µM | TGI (NCI-H460 lung): > 100 µM | TGI (U251 CNS): > 100 µM | TGI (SF-295 CNS): > 100 µM | TGI (MDA-MB-435): > 100 µM | TGI (SK-MEL-2 melanoma): 68.5 µM | TGI (SK-MEL-28 melanoma): > 100 µM | TGI (HOP-92 NSCLC): 70.4 µM | TGI (HOP-62 NSCLC): > 100 µM | TGI (MDA-MB-231 breast): > 100 µM | TGI (A549 NSCLC): > 100 µM | TGI (K-562 leukemia): > 100 µM | TGI (PC-3 prostate): > 100 µM | TGI (DU-145 prostate): > 100 µM | TGI (RPMI-8226 leukemia): 37.9 µM | TGI (HCT-15 colon): > 100 µM | TGI (HS 578T breast): > 100 µM | TGI (UACC-257 melanoma): > 100 µM | TGI (SK-OV-3 ovarian): > 100 µM | TGI (RXF 393 renal): 98.5 µM | TGI (SNB-75 CNS): 27.9 µM | TGI (SNB-19 CNS): > 100 µM | TGI (LOX IMVI melanoma): > 100 µM | TGI (MDA-N): > 100 µM | TGI (MALME-3M melanoma): 88.5 µM | TGI (HCT-116 colon): > 100 µM | TGI (MOLT-4 leukemia): 53.8 µM | TGI (T-47D breast): 55.4 µM | TGI (NCI-H522 lung): > 100 µM | TGI (BT-549 breast): > 100 µM | TGI (IGROV1 ovarian): > 100 µM | TGI (HT29 colon): > 100 µM | TGI (SN12C renal): > 100 µM | TGI (786-0 renal): > 100 µM | TGI (COLO 205 colon): > 100 µM | TGI (MCF7 breast): > 100 µM | TGI (UACC-62 melanoma): > 100 µM | TGI (HL-60(TB) leukemia): 51.9 µM | TGI (EKVX NSCLC): 96.6 µM | TGI (NCI-H23 lung): > 100 µM | TGI (OVCAR-3 ovarian): > 100 µM | TGI (NCI/ADR-RES ovarian): > 100 µM | TGI (A498 renal): 73.9 µM | TGI (SF-539 CNS): > 100 µM | TGI (UO-31 renal): 29.9 µM | TGI (M14 melanoma): > 100 µM | TGI (HCC-2998 colon): > 100 µM

CC(C)(CO)NC(=O)Nc1c(C(F)(F)F)cc(-c2ccccc2)[nH]c1=O
TGI (CCRF-CEM leukemia): > 100 µM | TGI (OVCAR-5 ovarian): > 100 µM | TGI (TK-10 renal): > 100 µM | TGI (ACHN renal): > 100 µM | TGI (CAKI-1 renal): > 100 µM | TGI (KM12 colon): > 100 µM | TGI (SF-268 CNS): > 100 µM | TGI (OVCAR-8 ovarian): > 100 µM | TGI (SW-620 colon): > 100 µM | TGI (NCI-H460 lung): > 100 µM | TGI (U251 CNS): > 100 µM | TGI (SF-295 CNS): > 100 µM | TGI (MDA-MB-435): > 100 µM | TGI (SK-MEL-2 melanoma): > 100 µM | TGI (SK-MEL-28 melanoma): > 100 µM | TGI (HOP-92 NSCLC): > 100 µM | TGI (HOP-62 NSCLC): > 100 µM | TGI (MDA-MB-231 breast): > 100 µM | TGI (A549 NSCLC): > 100 µM | TGI (K-562 leukemia): > 100 µM | TGI (PC-3 prostate): > 100 µM | TGI (DU-145 prostate): > 100 µM | TGI (HCT-15 colon): > 100 µM | TGI (HS 578T breast): > 100 µM | TGI (UACC-257 melanoma): > 100 µM | TGI (SK-OV-3 ovarian): > 100 µM | TGI (RXF 393 renal): > 100 µM | TGI (SNB-19 CNS): > 100 µM | TGI (LOX IMVI melanoma): > 100 µM | TGI (MDA-N): > 100 µM | TGI (MALME-3M melanoma): > 100 µM | TGI (HCT-116 colon): > 100 µM | TGI (MOLT-4 leukemia): > 100 µM | TGI (T-47D breast): > 100 µM | TGI (NCI-H522 lung): > 100 µM | TGI (NCI-H226 lung): > 100 µM | TGI (BT-549 breast): > 100 µM | TGI (SK-MEL-5 melanoma): > 100 µM | TGI (IGROV1 ovarian): > 100 µM | TGI (HT29 colon): > 100 µM | TGI (SN12C renal): > 100 µM | TGI (786-0 renal): > 100 µM | TGI (COLO 205 colon): > 100 µM | TGI (MCF7 breast): > 100 µM | TGI (UACC-62 melanoma): > 100 µM | TGI (EKVX NSCLC): > 100 µM | TGI (NCI-H23 lung): > 100 µM | TGI (OVCAR-3 ovarian): > 100 µM | TGI (NCI/ADR-RES ovarian): > 100 µM | TGI (A498 renal): > 100 µM | TGI (UO-31 renal): > 100 µM | TGI (M14 melanoma): > 100 µM | TGI (HCC-2998 colon): > 100 µM
